The values that follow come from patent publication US20070154444A1, “Extracts from black yeast for whitening skin” (priority 2005, published 2007).

The subject of this assay is UV-B induced tan of the skin. The experiment in a line: Whitening action: fading of UV-B induced tan on the backs of volunteer panelists, Minolta Chromameter reflectance. As to conditions: FIG. 5; 1% extract or 2% kojic acid in Example 4 composition; 2 mg/cm^2 once a day; nine panelists. It counts as in vivo, human. The procedure:
A comparative study is done to determine the whitening efficacy of an Exophiala mansonii—derived enzyme extract in comparison to the efficacy of a known tyrosinase inhibitor, kojic acid. More specifically, the study was designed to study the lightening effect of these materials (reduction in tanning) using the fading of UV-B induced tan as a marker. Two samples are prepared. The first sample contains the composition described in Example 4. The second sample has the same composition as that described in Example 4 except that 2% kojic acid is substituted for the 1 % Exophiala mansonii enzyme extract. Nine volunteers participate in the study. […] Tanning is observed for six days after irradiation at which point color measurements are made using a Minolta Chromameter which measures the difference in reflectance of the skin, L. The change in the value of the difference in reflectance, ΔL*, is measured against a baseline skin color value of untreated irradiated skin measured on day 6. […] Chromameter readings are obtained on day 6, 8, 11, 13 and 15. The observed reflectance values for all the time points are recorded, and the area under the curve for each test site was calculated. The Whitening Factor is calculated as the area under the curve of the treated site subtracted from the untreated site, and is shown in FIG. 5.

As for `O=c1cc(CO)occ1O` [kojic acid], the “Whitening Factor (area under the curve of the treated site subtracted from the untreated site)” value stood at 1.8.
